Laboratory results: patent US7847063B2 (Sanwa Kagaku Kenkyusho Co., Ltd., priority 2003, dated 2010)
Ends that are not written are not given here.

How the values were obtained:
[1] = target: T1, trypsin (Sus scrofa, UniProt P00761)
Protocol: To this diluent, 6 μl of 83 μg/ml trypsin solution (Promega: Cat. No. V5113) was added. The resultant was reacted at 37° C. for 1, 2, 4, 6 or 20 hours, and then the reaction was stopped by adding 1200 μl of 71.5% ethanol (final 65%). The supernatant was collected by centrifugation at 15,000 rpm at 4° C. for 5 min and evaporation was carried out. The dried solids were dissolved in distilled water and the activity was measured.

[2] = target: T1, trypsin; conditions: pH 7.8
Protocol: 5 μl of 500 μg/ml trypsin solution (Promega: Cat. No. V5113) was added to 100 μl of this solution, and reacted at 37° C. for 1 hour. The reaction was stopped by adding 1200 μl of 71.5% ethanol (final 65%). The supernatant was collected by centrifugation at 15,000 rpm at 4° C. for 5 min, and evaporation was carried out. The dried solids were dissolved in distilled water and used for measuring activity.
The reaction was stopped by adding 1200 μl of 71.5% ethanol (final 65%). The supernatant was collected by centrifugation of 15,000 rpm at 4° C. for 5 min and evaporation was carried out. The dried solids were dissolved in distilled water and used for measuring the activity.

[3] = tested on: Langerhans islets; experiment: Insulin secretion-promoting activity in isolated Langerhans islets; assay type: cell-based, ICR mouse; conditions: 16.7 mM glucose, 37° C. 30 min, FIG. 13
From the text: Langerhans islets were extracted from ICR mouse pancreas with collagenase, 2 to 3 Langerhans islets were placed per well of 24-well plates, and cultured overnight.

[4] = target: DPP-IV (Sus scrofa, UniProt P22411)
[5] = target: T2, human GLP-1 receptor (Homo sapiens, UniProt P43220); experiment: Cyclic AMP production activity in CHO-K1 cells expressing human GLP-1 receptors; assay type: cell-based; conditions: compared with native GLP-1; 37° C. 30 min; FIG. 7
T2 construct: expressed in transfected cells; host or cells: Chinese hamster ovary CHO-K1 cells
Protocol: 10 μl of 5N hydrochloric acid was added to the buffer to stop the incubation.

[6] = Hypoglycemic effect in oral glucose tolerance test (OGTT) by subcutaneous administration; assay type: in vivo; conditions: mice fasted overnight, 1 g/kg glucose orally, peptide 5, 20 μg/kg dorsal subcutaneously; FIG. 14
Protocol: Physiological saline was administered to the control group. Before loading glucose and 20, 60, 120 min after loading, blood was collected chronologically from subocular venous plexus, to measure blood glucose level. […] Moreover, the action continued until 120 min after the administration (FIG. 15).

T1 sequence (P00761 9-231): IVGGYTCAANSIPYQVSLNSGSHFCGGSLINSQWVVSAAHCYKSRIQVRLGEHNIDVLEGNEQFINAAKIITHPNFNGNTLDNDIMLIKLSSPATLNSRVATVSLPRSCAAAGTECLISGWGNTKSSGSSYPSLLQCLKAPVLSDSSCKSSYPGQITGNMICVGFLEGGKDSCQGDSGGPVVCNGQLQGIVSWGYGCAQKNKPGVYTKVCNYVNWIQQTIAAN
Chain of DPP-IV (P22411 whole entry): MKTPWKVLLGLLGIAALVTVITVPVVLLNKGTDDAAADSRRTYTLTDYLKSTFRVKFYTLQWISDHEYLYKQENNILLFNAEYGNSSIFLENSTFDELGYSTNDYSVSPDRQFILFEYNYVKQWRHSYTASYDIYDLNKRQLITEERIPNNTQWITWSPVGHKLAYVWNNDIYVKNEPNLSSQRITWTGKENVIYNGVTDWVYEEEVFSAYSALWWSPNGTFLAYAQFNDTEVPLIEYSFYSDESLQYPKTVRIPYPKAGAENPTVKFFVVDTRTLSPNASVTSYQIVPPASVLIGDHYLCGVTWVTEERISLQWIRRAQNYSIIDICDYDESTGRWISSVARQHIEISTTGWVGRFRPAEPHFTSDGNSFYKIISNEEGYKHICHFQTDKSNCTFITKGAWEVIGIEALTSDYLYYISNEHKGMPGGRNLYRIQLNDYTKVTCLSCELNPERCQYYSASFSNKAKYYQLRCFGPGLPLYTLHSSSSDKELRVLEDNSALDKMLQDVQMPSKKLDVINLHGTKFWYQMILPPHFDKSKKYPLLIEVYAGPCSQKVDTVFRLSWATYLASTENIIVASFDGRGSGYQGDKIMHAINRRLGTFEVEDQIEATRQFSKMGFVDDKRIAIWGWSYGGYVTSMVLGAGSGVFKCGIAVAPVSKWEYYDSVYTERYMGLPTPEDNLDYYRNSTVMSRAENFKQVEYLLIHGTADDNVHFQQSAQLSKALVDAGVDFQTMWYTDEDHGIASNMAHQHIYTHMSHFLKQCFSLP
T2 sequence (P43220 24-463): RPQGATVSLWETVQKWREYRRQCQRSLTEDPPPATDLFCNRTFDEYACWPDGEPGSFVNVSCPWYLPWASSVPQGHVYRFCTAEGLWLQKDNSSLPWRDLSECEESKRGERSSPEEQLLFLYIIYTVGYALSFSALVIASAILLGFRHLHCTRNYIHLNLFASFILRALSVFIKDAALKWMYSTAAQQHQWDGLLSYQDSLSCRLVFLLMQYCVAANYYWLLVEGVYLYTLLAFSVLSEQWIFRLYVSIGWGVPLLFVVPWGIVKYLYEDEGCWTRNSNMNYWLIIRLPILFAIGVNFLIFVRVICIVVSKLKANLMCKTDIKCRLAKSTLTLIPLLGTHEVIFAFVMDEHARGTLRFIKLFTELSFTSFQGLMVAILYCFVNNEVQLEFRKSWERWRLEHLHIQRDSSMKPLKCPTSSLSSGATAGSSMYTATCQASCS

In the case of [Ser^8, Gln^26, Asp^34]-GLP-1 (7-36), the “cyclic AMP production activity versus trypsin treatment time” value [1] is reported as “the activity was maintained regardless of the trypsin treatment time”, the “variation in activity by trypsin treatment (trypsin resistance)” value [2] is reported as “no variation in activity by trypsin treatment” and the insulin secretion-promoting activity [3] is reported as “Amount-dependent insulin secretion-promoting activity”. The DPP-IV resistance [4] was “obvious DPP-IV resistance”.
In the case of “GLP-1 (7-36 amide) (HAEGTFTSDVSSYLEGQAAKEFIAWLVKGR-NH2) [native GLP-1, made by solid phase synthesis, reference compound]”, the insulin secretion-promoting activity [3] is reported as “Amount-dependent insulin secretion-promoting activity”.
For “HAEGTFTSDVSSYLEGQAAQEFIAWLVNGR-NH2 [[Gln^26, Asn^34]-GLP-1 (7-36 amide)]”, the “activity before and after trypsin treatment (trypsin resistance)” value [2] was “no difference of activity before and after trypsin treatment” and the “cyclic AMP production activity” value [5] was “same level of cyclic AMP production activity as native GLP-1”.
In the case of “HSEGTFTSDVSSYLEGQAAQEFIAWLVNGR-OH [[Ser^8, Gln^26, Asn^34]-GLP-1 (7-36), [Ser^8, Gln^26, Asn^34]-GLP-1 (7-36)]”, the “peak value of blood glucose increase / hypoglycemic action” value [6] is reported as “strong action”, the “variation in activity by trypsin treatment (trypsin resistance)” value [2] is reported as “no variation in activity by trypsin treatment” and the insulin secretion-promoting activity [3] is reported as “Amount-dependent insulin secretion-promoting activity”. For the same substance, the “insulin secretion-promoting activity at high concentration” value ([3]; high concentration) was “strong insulin secretion-promoting activity” and the DPP-IV resistance [4] was “obvious DPP-IV resistance”.
